Results: patent US8748572B2, “RNase a peptides, fragments and uses thereof” (priority 2006, dated 2014)

Assays:
[1] = isoelectric point; format: physicochemical
[2] = tested on: Salmonella enterica serovar pullorum; experiment: bactericidal assay on natural pathogen; format: cell-based; details: free peptide
From the text: FIG. 11 is a graph showing that the domain III peptide is bactericidal for S. enterica serovar pullorum which is a natural pathogen of domestic poultry. At the highest concentration tested, 100 micromolar, RNase A-2 domain III reduces the colony count from 100-1000 fold (2-3 logs).
The bactericidal actions of the A-2 domain sequences on natural pathogens was explored. The bactericidal activity of the leukocyte RNase A-2 domain III peptide on the natural pathogen Salmonella enterica serovar pullorum was determined using the bactericidal assays as previously described. S. enterica is a gram negative pathogen isolated initially from domestic poultry and is as such a natural target pathogen for a bactericidal agent isolated from chicken granulocytes. […] At the highest concentration tested, 100 micromolar, RNase A-2 domain III reduces the colony count from 100-1000 fold (2-3 logs). Thus, the A-2 domain sequences are useful bactericidal agents against natural pathogens.
Bactericidal assays were performed as described previously with modifications. Briefly, 100 microliters from a single bacterial colony overnight culture grown in Luria-Bertani (LB) broth was diluted 1:100 in 100 mM sodium phosphate, pH 7.4, collected by centrifugation, and resuspended in 1 ml sodium phosphate, pH 7.4. […] All points were determined in triplicate.

[3] = tested on: E. coli DH5α; experiment: bactericidal colony-forming assay, E. coli; format: cell-based, Escherichia coli; details: free synthetic peptide; for LD99: E. coli
Method: FIGS. 5 A & B are graphs showing the bactericidal activity of rRNases A-1 and A-2. In panel (A) E. coli DH5α and in panel (B) S. aureus 502A were re-suspended in 100 mM sodium phosphate buffer, pH 7.4, and incubated with the indicated concentrations of chicken leukocyte RNase A-1 (open squares) and A-2 (closed circles) for 4 h at 37° C., plated on RNase-free LB agar, and grown overnight for colony counts.
RNase A polypeptides and fragments according to the invention that have bactericidal activity are particularly preferred for use in the treatment methods of the invention. The bactericidal and bacteriostatic activity of a particular RNase A polypeptides or fragments can be assessed by known protocols, such as that described in the methods section and the following described protocol, herein referred to as “a standard bacterial colony formation assay.” Bactericidal assays are well-described in the art, and are performed as described previously, and as exemplified in Examples 3-6. Briefly, an aliquot from a single bacterial colony overnight culture grown in Luria-Beitani (LB) broth is diluted 1:100 in sodium phosphate, pH 7.4, collected by centrifugation, and resuspended in sodium phosphate, pH 7.4. An aliquot of bacteria in buffer are incubated for 4 hr at 37° C. with recombinant protein or peptide at concentrations indicated, or diluent control and were then diluted 10, 100, or 1000-fold prior to plating on LB agar for overnight growth for colony counts.
Next, the bactericidal activity of chicken leukocyte RNases were examined using a colony-forming assay as previously described for eosinophil cationic protein [28]. […] E. coli was more susceptible to the bactericidal activity of leukocyte rRNase A-2 than was S. aureus, as 5 μM rRNase A-2 reduced the colony count of E. coli 10^7-fold, while reducing the colony count of S. aureus, only 100-fold. Recombinant RNase A-1 had no effect on colony number of E. coli or S. aureus concentrations up to and including […].
Bactericidal assays were performed as described previously with modifications. Briefly, 100 microliters from a single bacterial colony overnight culture grown in Luria-Bertani (LB) broth was diluted 1:100 in 100 mM sodium phosphate, pH 7.4, collected by centrifugation, and resuspended in 1 ml sodium phosphate, pH 7.4. Ten microliters of bacteria in buffer are incubated for 4 hr at 37° C. with 10 microliters recombinant protein or peptide at concentrations indicated, or diluent control and were then diluted 10, 100, or 1000-fold prior to plating on LB agar for overnight growth for colony counts. All points were determined in triplicate.

[4] = tested on: Gallus gallus leukocyte RNases; experiment: RNase activity with human placental RNase inhibitor; format: biochemical; details: preincubation with 200 U hPRI, yeast tRNA substrate, pH 7.0
Method: FIGS. 4 A-D are graphs showing the ribonucleolytic activity of recombinant leukocyte RNases. (A) is a graph showing the optimum pH for RNase activity. Enzymatic activity was determined with 50 pmol rRNase A-1 (open squares) and rRNase A-2 (closed circles) that was incubated with 250 μg/ml yeast tRNA in 40 mM sodium phosphate buffer at the pHs indicated. Measurements of A260 per time were converted to pmol/s as described in reference 28 and Methods. (B) is a graph showing the initial rates for RNase activity. Enzymatic activity was determined as described in (A) with 40 mM sodium phosphate buffer, pH 7.0. (C) is a graph showing the substrate preference for RNase activity. […] A260 was measured after precipitation of undigested RNA at each of the time points indicated. […] RNase activity was measured with […] of bovine pancreatic RNase (left) or […] rRNase A-1 and rRNase A-2 (right) with 250 μg/ml of yeast tRNA as substrate with (+) or without (−) 200 U human placental RNase inhibitor (hPR1) in 40 mM sodium phosphate buffer, pH 7.0. […]
The ribonuclease (RNase) assay with yeast tRNA substrate has been described in detail elsewhere. […] In experiments in which the pH optimum was to be determined, 40 mM sodium phosphate buffers of pH 5.0, 5.5, 6.0, 6.5, 7.4 or 8.0 were used instead of the buffer of pH 7.0. […]

RYSGNQFNRRVRVGCRG [A-2 domain III peptide]
isoelectric point (pI) [1]: 12.3 | bactericidal activity (in words) [2]: bactericidal | bactericidal activity of free peptide against E. coli (in words) [3]: active | LD99 [3]: 10 µM

SYTGNQFNHRVRVGCWG [A-1 domain III]
isoelectric point (pI) [1]: 9.9 | bactericidal activity of free peptide against E. coli (in words) [3]: no significant activity

TRIRTRFHT [scrambled domain II peptide]
bactericidal activity of free peptide against E. coli (in words) [3]: reduced the colony count of E. coli to the same degree as the wild type A-2 domain II peptide

TTRRHFRIT [A-2 domain II peptide]
isoelectric point (pI) [1]: 12.8 | bactericidal activity of free peptide against E. coli (in words) [3]: reduced colony count of E. coli in a dose-dependent manner | LD99 [3]: 200 µM

B1: hPRI: human placental RNase inhibitor (Boehringer Mannheim) (protein)
chain: SLDIQSLDIQCEELSDARWAELLPLLQQCQVVRLDDCGLTEARCKDISSALRVNPALAELNLRSNELGDVGVHCVLQGLQTPSCKIQKLSLQNCCLTGAGCGVLSSTLRTLPTLQELHLSDNLLGDAGLQLLCEGLLDPQCRLEKLQLEYCSLSAASCEPLASVLRAKPDFKELTVSNNDINEAGVRVLCQGLKDSPCQLEALKLESCGVTSDNCRDLCGIVASKASLRELALGSNKLGDVGMAELCPGLLHPSSRLRTLWIWECGITAKGCGDLCRVLRAKESLKELSLAGNELGDEGARLLCETLLEPGCQLESLWVKSCSFTAACCSHFSSVLAQNRFLLELQISNNRLEDAGVRELCQGLGQPGSVLRVLWLADCDVSDSSCSSLAATLLANHSLRELDLSNNCLGDAGILQLVESVRQPGCLLEQLVLYDIYWSEEMEDRLQALEKDKPSLRVIS
inhibition of RNase activity [4]: completely inhibited
